Experimental data from US6787674B1, “(+)-1-Bisabolone isolated from cymbopogon flexuosus and antibacterial activity thereof” (Council of Scientific and Industrial Research, priority 2003, dated 2004).

Columns and labels:
Assay type in all cases: cell-based
Bacillus cereus = test: Filter paper disc agar diffusion, antibacterial activity
Experimental: (§1) The pure bacterial cultures of test bacteria were procured from laboratory culture collection maintained at RRL, Jammu. The bacterial organisms were subcultured on L B. broth. Following filter paper disc agar diffusion method (Maruzella, J. C. and Henry, P. A. 1958, the antifungal activity of perfume oils. J. Amer. Pharm. Ass., 47:471-476).
(§2) 20 ml of sterilized medium was taken in each petriplate. After the agar has hardened, 2 ml of 24 hrs. broth culture of organism was added to each petriplate and mixed thoroughly by rotatory motion of the plate and allowed to set. The sterilized Whatman filter paper No. 1 discs (4 mm diameter) were thoroughly moistened with 5 μl of (+)-1-bisabolone of formula 1 in dilution of 1:50, 1:100 in the solvent Tween-80 and placed on the seeded agar plates. The standard antibiotic disc of ampicillin was placed on surface of each seeded petriplate as standard for anti-bacterial activity. Three each of seeded agar plates for each organism were incubated at 37° C. for 36 hrs. […] The zone of inhibition was measured with the help of a divider. The […] were performed in triplicate and average zones of inhibition for anti-bacterial activity are recorded in Table-2.

Bacillus subtilis = test: as above
Experimental: as §1, §2

Staphylococcus aureus = test: as above
Experimental: as §1, §2

gram positive bacteria = test: In vitro antibacterial activity compared with standard ampicillin
Experimental: as §1, §2

other test bacteria = test: In vitro antibacterial activity, other test bacteria
Experimental: as §1, §2

[1] = control (standard antibiotic disc of ampicillin)
[2] = Pure 1, 4 mm disc, 37° C., 36 hrs
[3] = dilution 1:50 in Tween-80, 5 μl on 4 mm disc, 37° C., 36 hrs
[4] = dilution 1:100 in Tween-80, 5 μl on 4 mm disc, 37° C., 36 hrs

| SMILES | Diameter (mm) of zone inhibition (Bacillus cereus; [1]) | Diameter (mm) of zone inhibition (Bacillus subtilis; [1]) | Diameter (mm) of zone inhibition (Staphylococcus aureus; [1]) | activity compared with the standard ampicillin (gram positive bacteria) | in vitro antibacterial activity (in words) (Bacillus cereus) | Diameter (mm) of zone inhibition (Bacillus cereus; [2]) | Diameter (mm) of zone inhibition (Bacillus cereus; [3]) | Diameter (mm) of zone inhibition (Bacillus cereus; [4]) | in vitro antibacterial activity (in words) (Bacillus subtilis) | Diameter (mm) of zone inhibition (Bacillus subtilis; [2]) | Diameter (mm) of zone inhibition (Bacillus subtilis; [3]) | Diameter (mm) of zone inhibition (Bacillus subtilis; [4]) | in vitro antibacterial activity (in words) (Staphylococcus aureus) | Diameter (mm) of zone inhibition (Staphylococcus aureus; [2]) | Diameter (mm) of zone inhibition (Staphylococcus aureus; [3]) | Diameter (mm) of zone inhibition (Staphylococcus aureus; [4]) | in vitro antibacterial activity (in words) (other test bacteria) |
| --- | --- | --- | --- | --- | --- | --- | --- | --- | --- | --- | --- | --- | --- | --- | --- | --- | --- |
| CC1(C)S[C@@H]2[C@H](NC(=O)[C@H](N)c3ccccc3)C(=O)N2[C@H]1C(=O)O [control, ampicillin, reference compound] | 4 mm | 5 mm | 6 mm |  |  |  |  |  |  |  |  |  |  |  |  |  |  |
| CC(C)=CCC[C@H](C)[C@H]1CCC(C)=CC1=O [(+)-1-bisabolone] |  |  |  | far better activity | strongly active | 21 mm | 13 mm | 9 mm | strongly active | 19 mm | 15 mm | 13 mm | strongly active | 24 mm | 19 mm | 13 mm | good to moderate activity |
